From patent publication US20230382863A1, “MEK INHIBITORS AND USES THEREOF” (Ikena Oncology, Inc., priority 2022, published 2023)

Key:
[1] = Cassette pharmacokinetics studies in mice; format: in vivo; conditions: male, Balb/c, plasma, Mouse
In short: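 Male Balb/c mice (3 per route) received cassette doses in 5% DMSO/95% PEG400 at 2 mg/kg IV (1 mg/kg where IV*) or 5 mg/kg PO. Plasma sampled to 24 h, acetonitrile-precipitated with internal standard, quantified by HPLC/MS/MS against 0.5-1,000 ng/mL standards.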

[2] = tested on: OCI-AML-3 xenograft (NRAS Q61L); assay: In vivo efficacy, OCI-AML-3 xenograft model; set-up: species or system mouse; conditions: OCI-AML-3 model, Day 15
Experimental: (§1) The antitumor activity of exemplary MEK inhibitor compounds is evaluated in vivo using human cell line derived xenografts (CDX) grown in immunodeficient mice. For these studies, AsPC1 (pancreatic cell line with KRAS G12D mutation), NCI-H2122 (lung cell line with KRAS G12C mutation), and 5637 (bladder cell line with CRAF amplification) models are used. In addition, HCT-116 (colorectal cell line with KRAS G13D mutation), SKM-1 (AML cell line with KRAS K117N mutation), and OCI-AML-3 (AML cell line with NRAS Q61L mutation) models are used. The tumor cell lines (AsPC-1, NCI-H2122, 5637, and HCT-116 cells) are maintained in vitro as monolayer culture in medium at 37° C. in an atmosphere of 5% CO2 in air. The tumor cell lines (SKM-1 and OCI-AML-3 cells) are maintained in vitro as a suspension in medium at 37° C. in an atmosphere of 5% CO2 in air. The tumor cells are routinely sub-cultured before confluence by trypsin-EDTA treatment, not to exceed 4-5 passages. The cells growing in an exponential growth phase are harvested for tumor inoculation. AsPC1, NCI-H2122, and OCI-AML-3 tumors are implanted into Balb/c nude mice. HCT-116 tumors are implanted into Nu/Nu mice. 5637 and SKM-1 tumors are implanted into NOG mice. Each mouse is inoculated subcutaneously on the right flank with tumor cells in a 1:1 mixture with matrigel. Tumors are allowed to grow to approximately 150-200 mm^3. At this time, mice are assigned to groups such that the mean tumor volume is the same for each treatment group. The MEK inhibitor compound treatments are administrated to the tumor-bearing mice via oral gavage. Throughout the study, mouse body weight and tumor volume are recorded. The measurement of tumor size is conducted twice weekly with a caliper and recorded. The tumor volume (mm^3) is estimated using the formula: TV=a×b^2/2, where “a” and “b” are long and short diameters of a tumor, respectively.

[3] = tested on: SKM-1 xenograft (KRAS K117N); assay: In vivo efficacy, SKM-1 xenograft model; set-up: species or system mouse; conditions: SKM-1 model, Day 22
Experimental: as §1

CRAF in complex with MEK = assay: CRAF-MEK stabilization in cells (MEK immunoprecipitation, Western); format: cell-based; conditions: HCT-116 and NCI-H1666 cells, 3 nM, 4 hours
From the text: The stabilization of ARAF, BRAF and CRAF in complex with MEK in MEK immunoprecipitates isolated from cellular lysates. For these studies, HCT-116 (colorectal cell line with KRAS G13D mutation), SKMEL-2 (melanoma cell line with NRAS Q61K mutation), HT-29 (colorectal cell line with BRAF Class I mutation), NCI-H1755 (lung cancer cell line with BRAF Class II mutation), and NCI-H1666 (lung cancer cell line with BRAF Class III mutation) models are used. The tumor cell lines are maintained in vitro as monolayer culture in medium at 37° C. in an atmosphere of 5% CO2 in air. Cell lines are treated with exemplary MEK inhibitors at a concentration of 3 nM for 4 hours. Cells are lysed and MEK is immunoprecipitated from the lysates overnight. Denatured immunoprecipitates are run on SDS-PAGE, transferred to nitrocellulose membranes and associated ARAF, BRAF, or CRAF are detected by Western analysis. Stabilization was defined as >1.5-fold induction of RAF-MEK interaction over vehicle control.

AUC(0-inf) ([1]; IV, 2 mg/kg): 1950 ng·h/mL
AUC(0-t) ([1]; IV, 2 mg/kg): 1940 ng·h/mL
clearance ([1]; IV, 2 mg/kg): 17.2 mL/min/kg
half-life ([1]; IV, 2 mg/kg): 1.04 h
Vd ([1]; IV, 2 mg/kg, read-out: Vdss): 1.3 L/kg
AUC(0-inf) ([1]; PO, 5 mg/kg): 4040 ng·h/mL
AUC(0-t) ([1]; PO, 5 mg/kg): 3960 ng·h/mL
Cmax ([1]; PO, 5 mg/kg): 1660 ng/mL
Tmax ([1]; PO, 5 mg/kg): 0.5 h
half-life ([1]; PO, 5 mg/kg): 7.99 h
weight gain ([2]; 6 mg/kg QOD): 3.3%
weight gain ([3]; 1 mg/kg QD): 1.2%
weight gain ([3]; 6 mg/kg QOD): 3.9%
Structure (SMILES): CNS(=O)(=O)Nc1cccc(Oc2c(C(=O)NC3CC3)c(Nc3ccc(I)cc3F)n(C)c(=O)c2C)c1Cl [Compound I-2, 4-(2-chloro-3-((N-methylsulfamoyl)amino)phenoxy)-N-cyclopropyl-2-((2-fluoro-4-iodophenyl)amino)-1,5-dimethyl-6-oxo-1,6-dihydropyridine-3-carboxamide]
average body weight loss ([2]; 1 mg/kg QD): 2.9%
percent TGI ([2]; 1 mg/kg QD): 94.8%
average body weight loss ([2]; 3 mg/kg QD): 7.8%
percent TGI ([2]; 3 mg/kg QD): 98.6%
percent TGI ([2]; 6 mg/kg QOD): 95.2%
percent TGI ([3]; 1 mg/kg QD): 97.7%
average body weight loss ([3]; 3 mg/kg QD): 1.2%
percent TGI ([3]; 6 mg/kg QOD): 96.2%
MEK inhibitor-induced MEK-CRAF stabilization (CRAF in complex with MEK): stabilization was observed
